According to paper PMC10408569, “Recruitment of hexahydroquinoline as anticancer scaffold targeting inhibition of wild and mutants EGFR (EGFR^WT, EGFR^T790M, and EGFR^L858R)” (Journal of Enzyme Inhibition and Medicinal Chemistry, 2023):

Legend:
Assay in all cases: NCI-60 anticancer screening (SRB)
Assay type in all cases: cell-based
HCT-116 = conditions: Homo sapiens; HCT-116, colon cancer; one dose 10 μM; read-out: Growth Inhibition Percentage (GI %)
CCRF-CEM = conditions: Homo sapiens, leukemia, one dose 10 μM, read-out: Growth Inhibition Percentage (GI %)
A498 = conditions: Homo sapiens; A498, renal cancer; one dose 10 μM; read-out: Growth Inhibition Percentage (GI %)
HOP-92 = conditions: Homo sapiens; HOP-92, NSC lung cancer; one dose 10 μM; read-out: Growth Inhibition Percentage (GI %)
HT29 = conditions: Homo sapiens, HT-29; HT29, colon cancer; one dose 10 μM; read-out: Growth Inhibition Percentage (GI %)
OVCAR-4 = conditions: Homo sapiens; OVCAR-4, ovarian cancer; one dose 10 μM; read-out: Growth Inhibition Percentage (GI %)
RXF 393 = conditions: Homo sapiens; RXF 393, renal cancer; one dose 10 μM; read-out: Growth Inhibition Percentage (GI %)
SW-620 = conditions: Homo sapiens; SW-620, colon cancer; one dose 10 μM; read-out: Growth Inhibition Percentage (GI %)
SF-295 = conditions: Homo sapiens; SF-295, CNS cancer; one dose 10 μM; read-out: Growth Inhibition Percentage (GI %)
T-47D = conditions: Homo sapiens, T47D, breast cancer, one dose 10 μM, read-out: Growth Inhibition Percentage (GI %)
SK-MEL-5 = conditions: Homo sapiens; SK-MEL-5, melanoma; one dose 10 μM; read-out: Growth Inhibition Percentage (GI %)
SR = conditions: Homo sapiens, leukemia, one dose 10 μM, read-out: Growth Inhibition Percentage (GI %)
SF-268 = conditions: Homo sapiens; SF-268, CNS cancer; one dose 10 μM; read-out: Growth Inhibition Percentage (GI %)
K-562 = conditions: Homo sapiens, K562; K-562, leukemia; one dose 10 μM; read-out: Growth Inhibition Percentage (GI %)
PC-3 = conditions: Homo sapiens; PC-3, prostate cancer; one dose 10 μM; read-out: Growth Inhibition Percentage (GI %)
TK-10 = conditions: Homo sapiens; TK-10, renal cancer; one dose 10 μM; read-out: Growth Inhibition Percentage (GI %)
NCI-H460 = conditions: Homo sapiens; NCI-H460, NSC lung cancer; one dose 10 μM; read-out: Growth Inhibition Percentage (GI %)
RPMI-8226 = conditions: Homo sapiens; RPMI-8226, leukemia; one dose 10 μM; read-out: Growth Inhibition Percentage (GI %)
LOX IMVI = conditions: Homo sapiens, melanoma, one dose 10 μM, read-out: Growth Inhibition Percentage (GI %)
SF-539 = conditions: Homo sapiens; SF-539, CNS cancer; one dose 10 μM; read-out: Growth Inhibition Percentage (GI %)
SK-OV-3 = conditions: Homo sapiens; SK-OV-3, ovarian cancer; one dose 10 μM; read-out: Growth Inhibition Percentage (GI %)
MCF7 = conditions: Homo sapiens; MCF7, breast cancer; one dose 10 μM; read-out: Growth Inhibition Percentage (GI %)
HS 578T = conditions: Homo sapiens; HS 578T, breast cancer; one dose 10 μM; read-out: Growth Inhibition Percentage (GI %)
ACHN = conditions: Homo sapiens, renal cancer, one dose 10 μM, read-out: Growth Inhibition Percentage (GI %)
SK-MEL-28 = conditions: Homo sapiens; SK-MEL-28, melanoma; one dose 10 μM; read-out: Growth Inhibition Percentage (GI %)
SN 12C = conditions: Homo sapiens, SN12C; SN 12C, renal cancer; one dose 10 μM; read-out: Growth Inhibition Percentage (GI %)
M14 = conditions: Homo sapiens; M14, melanoma; one dose 10 μM; read-out: Growth Inhibition Percentage (GI %)
UACC-62 = conditions: Homo sapiens; UACC-62, melanoma; one dose 10 μM; read-out: Growth Inhibition Percentage (GI %)

Measured: inhibition at 10 µM

CCOC(=O)C1=C(N)N(c2ccc(C)cc2)C2=C(C(=O)CC(C)(C)C2)C1c1ccc(OC)cc1 (racemic) [8g, (±)-Ethyl 2-amino-4–(4-methoxyphenyl)-7,7-dimethyl-1–(4-methylphenyl)-5-oxo-1,4,5,6,7,8-hexahydroquinoline-3-carboxylate]
< 10%: all assays above

CCOC(=O)C1=C(N)N(c2ccc(Cl)cc2)C2=C(C(=O)CC(C)(C)C2)C1c1ccc(OC)cc1 (racemic) [8h, (±)-Ethyl 2-amino-1–(4-chlorophenyl)-4–(4-methoxyphenyl)-7,7-dimethyl-5-oxo-1,4,5,6,7,8-hexahydroquinoline-3-carboxylate]
< 10%: all assays above
